Laboratory results from patent US20260193293A1, “PEPTIDES CAPABLE OF INHIBITING PROTEIN-PROTEIN INTERACTIONS AT GABAB1A SUBUNIT AND USES THEREOF” (UNIVERSITY OF COPENHAGEN, priority 2022, published 2026).
Where two headings read alike, the source gives them in different places. Residues, ends and D or L forms follow the SMILES beside them.

Biological target: Sushi domains (SD1/2) protein
Experiment: Fluorescence polarization (FP) competition assay with AJAP-1probe, calculated Ki
Type: binding
Details: read-out: Ki (nM) mean ± SEM
How it was run: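 Ki values were derived from IC50s (sigmoidal fits, ≥ triplicate), with probe Kd obtained by saturation titration of SD1/2. Peptides displaced a 25 nM TAMRA-labelled probe; polarization read at 530/580 nm in 1% BSA-containing PBS, pH 7.4, room temperature.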

[1] = Table 4, truncation and elongation scans of APP epitope
[2] = Table 8, Ala-, D-amino acids and N-methylation scans of AJAP-1WT
[3] = Table 11, deep mutational scanning validation variants of AJAP-1WT

Structure (SMILES)	Ki [1]	also measured
CC(=O)N[C@@H](CCC(=O)O)C(=O)N[C@@H](CCC(=O)O)C(=O)N[C@@H](CC(=O)O)C(=O)N[C@@H](CC(=O)O)C(=O)N[C@@H](CO)C(=O)N[C@@H](CC(=O)O)C(=O)N[C@H](C(=O)N[C@@H](Cc1c[nH]c2ccccc12)C(=O)N[C@@H](Cc1c[nH]c2ccccc12)C(=O)NCC(N)=O)C(C)C (Ac-EEDDSDVWWG-NH2)	12800 ± 415 nM	
CC(=O)N[C@@H](CCC(=O)O)C(=O)N[C@@H](CCC(=O)O)C(=O)N[C@@H](CC(=O)O)C(=O)N[C@@H](CC(=O)O)C(=O)N[C@@H](CO)C(=O)N[C@@H](CC(=O)O)C(=O)N[C@H](C(=O)N[C@@H](Cc1c[nH]c2ccccc12)C(=O)N[C@@H](Cc1c[nH]c2ccccc12)C(=O)NCC(=O)NCC(N)=O)C(C)C (Ac-EEDDSDVWWGG-NH2)	1754 ± 7 nM	
CC(=O)N[C@@H](CCC(=O)O)C(=O)N[C@@H](CCC(=O)O)C(=O)N[C@@H](CC(=O)O)C(=O)N[C@@H](CC(=O)O)C(=O)N[C@@H](CO)C(=O)N[C@@H](CC(=O)O)C(=O)N[C@H](C(=O)N[C@@H](Cc1c[nH]c2ccccc12)C(=O)N[C@@H](Cc1c[nH]c2ccccc12)C(=O)NCC(=O)NCC(=O)N[C@@H](C)C(N)=O)C(C)C (Ac-EEDDSDVWWGGA-NH2)	1020 ± 18 nM	
CC(=O)N[C@@H](CCC(=O)O)C(=O)N[C@@H](CCC(=O)O)C(=O)N[C@@H](CC(=O)O)C(=O)N[C@@H](CC(=O)O)C(=O)N[C@@H](CO)C(=O)N[C@@H](CC(=O)O)C(=O)N[C@H](C(=O)N[C@@H](Cc1c[nH]c2ccccc12)C(=O)N[C@@H](Cc1c[nH]c2ccccc12)C(=O)NCC(=O)NCC(=O)N[C@@H](C)C(=O)N[C@@H](CC(=O)O)C(N)=O)C(C)C (Ac-EEDDSDVWWGGAD-NH2)	534 ± 13 nM	
CC(=O)N[C@@H](CCC(=O)O)C(=O)N[C@@H](CCC(=O)O)C(=O)N[C@@H](CC(=O)O)C(=O)N[C@@H](CC(=O)O)C(=O)N[C@@H](CO)C(=O)N[C@@H](CC(=O)O)C(=O)N[C@H](C(=O)N[C@@H](Cc1c[nH]c2ccccc12)C(=O)N[C@@H](Cc1c[nH]c2ccccc12)C(=O)NCC(=O)NCC(=O)N[C@@H](C)C(=O)N[C@@H](CC(=O)O)C(=O)N[C@H](C(N)=O)[C@@H](C)O)C(C)C (Ac-EEDDSDVWWGGADT-NH2)	585 ± 10 nM	
CC[C@H](C)[C@H](NC(=O)[C@H](Cc1ccccc1)NC(=O)[C@H](CCC(=O)O)NC(=O)[C@@H](NC(=O)[C@H](CCC(=O)O)NC(C)=O)[C@@H](C)O)C(=O)N[C@@H](C)C(=O)N[C@@H](Cc1c[nH]c2ccccc12)C(=O)NCC(=O)N1CCC[C@H]1C(=O)N[C@H](C(=O)NCC(=O)N[C@@H](CC(=O)O)C(=O)N[C@@H](C)C(=O)N[C@@H](CC(=O)O)C(N)=O)[C@@H](C)O (Ac-ETEFIAWGPTGDAD-NH2)		Ki [2]: 38 ± 1 nM
CC[C@H](C)[C@H](NC(=O)[C@H](Cc1ccccc1)NC(=O)[C@H](CCC(=O)O)NC(=O)[C@@H](NC(=O)[C@H](CCC(=O)O)NC(C)=O)[C@@H](C)O)C(=O)N[C@@H](C)C(=O)N[C@@H](Cc1c[nH]c2ccccc12)C(=O)NCC(=O)N1CCC[C@H]1C(=O)N[C@H](C(=O)NCC(=O)N[C@@H](CC(=O)O)C(=O)N[C@@H](CC(=O)O)C(=O)N[C@@H](CC(=O)O)C(N)=O)[C@@H](C)O (Ac-ETEFIAWGPTGDDD-NH2)		Ki [3]: 27 ± 2 nM
CC[C@H](C)[C@H](NC(=O)[C@H](Cc1ccccc1)NC(=O)[C@H](CCC(=O)O)NC(=O)[C@@H](NC(=O)[C@H](CCC(=O)O)NC(C)=O)[C@@H](C)O)C(=O)N[C@@H](C)C(=O)N[C@@H](Cc1c[nH]c2ccccc12)C(=O)NCC(=O)N1CCC[C@H]1C(=O)N[C@H](C(=O)NCC(=O)N[C@@H](CC(=O)O)C(=O)N[C@@H](CCC(=O)O)C(=O)N[C@@H](C)C(N)=O)[C@@H](C)O (Ac-ETEFIAWGPTGDEA-NH2)		Ki [2]: 44 ± 1 nM
CC[C@H](C)[C@H](NC(=O)[C@H](Cc1ccccc1)NC(=O)[C@H](CCC(=O)O)NC(=O)[C@@H](NC(=O)[C@H](CCC(=O)O)NC(C)=O)[C@@H](C)O)C(=O)N[C@@H](C)C(=O)N[C@@H](Cc1c[nH]c2ccccc12)C(=O)NCC(=O)N1CCC[C@H]1C(=O)N[C@H](C(=O)NCC(=O)N[C@@H](CC(=O)O)C(=O)N[C@@H](CCC(=O)O)C(=O)N[C@@H](Cc1ccccc1)C(N)=O)[C@@H](C)O (Ac-ETEFIAWGPTGDEF-NH2)		Ki [3]: 48 ± 1 nM
CC[C@H](C)[C@H](NC(=O)[C@H](Cc1ccccc1)NC(=O)[C@H](CCC(=O)O)NC(=O)[C@@H](NC(=O)[C@H](CCC(=O)O)NC(C)=O)[C@@H](C)O)C(=O)N[C@@H](C)C(=O)N[C@@H](Cc1c[nH]c2ccccc12)C(=O)NCC(=O)N1CCC[C@H]1C(=O)N[C@H](C(=O)NCC(=O)N[C@@H](CC(=O)O)C(=O)N[C@@H](CCC(=O)O)C(=O)N[C@@H](CC(N)=O)C(N)=O)[C@@H](C)O (Ac-ETEFIAWGPTGDEN-NH2)		Ki [3]: 43 ± 2 nM

Further lines, with some results ahead:

Ki [1]	Structure (SMILES)	also measured
341 ± 10 nM	CC(=O)N[C@@H](CCC(=O)O)C(=O)N[C@@H](CCC(=O)O)C(=O)N[C@@H](CC(=O)O)C(=O)N[C@@H](CC(=O)O)C(=O)N[C@@H](CO)C(=O)N[C@@H](CC(=O)O)C(=O)N[C@H](C(=O)N[C@@H](Cc1c[nH]c2ccccc12)C(=O)N[C@@H](Cc1c[nH]c2ccccc12)C(=O)NCC(=O)NCC(=O)N[C@@H](C)C(=O)N[C@@H](CC(=O)O)C(=O)N[C@H](C(=O)N[C@@H](CC(=O)O)C(N)=O)[C@@H](C)O)C(C)C (Ac-EEDDSDVWWGGADTD-NH2)	
301 ± 7 nM	CC(=O)N[C@@H](CCC(=O)O)C(=O)N[C@@H](CCC(=O)O)C(=O)N[C@@H](CC(=O)O)C(=O)N[C@@H](CC(=O)O)C(=O)N[C@@H](CO)C(=O)N[C@@H](CC(=O)O)C(=O)N[C@H](C(=O)N[C@@H](Cc1c[nH]c2ccccc12)C(=O)N[C@@H](Cc1c[nH]c2ccccc12)C(=O)NCC(=O)NCC(=O)N[C@@H](C)C(=O)N[C@@H](CC(=O)O)C(=O)N[C@H](C(=O)N[C@@H](CC(=O)O)C(=O)N[C@@H](Cc1ccc(O)cc1)C(N)=O)[C@@H](C)O)C(C)C (Ac-EEDDSDVWWGGADTDY-NH2)	
299 ± 8 nM	CC(=O)N[C@@H](CCC(=O)O)C(=O)N[C@@H](CCC(=O)O)C(=O)N[C@@H](CC(=O)O)C(=O)N[C@@H](CC(=O)O)C(=O)N[C@@H](CO)C(=O)N[C@@H](CC(=O)O)C(=O)N[C@H](C(=O)N[C@@H](Cc1c[nH]c2ccccc12)C(=O)N[C@@H](Cc1c[nH]c2ccccc12)C(=O)NCC(=O)NCC(=O)N[C@@H](C)C(=O)N[C@@H](CC(=O)O)C(=O)N[C@H](C(=O)N[C@@H](CC(=O)O)C(=O)N[C@@H](Cc1ccc(O)cc1)C(=O)N[C@@H](C)C(N)=O)[C@@H](C)O)C(C)C (Ac-EEDDSDVWWGGADTDYA-NH2)	
343 ± 17 nM	CC(=O)N[C@@H](CCC(=O)O)C(=O)N[C@@H](CCC(=O)O)C(=O)N[C@@H](CC(=O)O)C(=O)N[C@@H](CC(=O)O)C(=O)N[C@@H](CO)C(=O)N[C@@H](CC(=O)O)C(=O)N[C@H](C(=O)N[C@@H](Cc1c[nH]c2ccccc12)C(=O)N[C@@H](Cc1c[nH]c2ccccc12)C(=O)NCC(=O)NCC(=O)N[C@@H](C)C(=O)N[C@@H](CC(=O)O)C(=O)N[C@H](C(=O)N[C@@H](CC(=O)O)C(=O)N[C@@H](Cc1ccc(O)cc1)C(=O)N[C@@H](C)C(=O)N[C@@H](CC(=O)O)C(=O)NCC(N)=O)[C@@H](C)O)C(C)C (Ac-EEDDSDVWWGGADTDYADG-NH2)	
341 ± 6 nM	CC(=O)N[C@@H](CCC(=O)O)C(=O)N[C@@H](CCC(=O)O)C(=O)N[C@@H](CC(=O)O)C(=O)N[C@@H](CC(=O)O)C(=O)N[C@@H](CO)C(=O)N[C@@H](CC(=O)O)C(=O)N[C@H](C(=O)N[C@@H](Cc1c[nH]c2ccccc12)C(=O)N[C@@H](Cc1c[nH]c2ccccc12)C(=O)NCC(=O)NCC(=O)N[C@@H](C)C(=O)N[C@@H](CC(=O)O)C(=O)N[C@H](C(=O)N[C@@H](CC(=O)O)C(=O)N[C@@H](Cc1ccc(O)cc1)C(=O)N[C@@H](C)C(=O)N[C@@H](CC(=O)O)C(=O)NCC(=O)NCC(N)=O)[C@@H](C)O)C(C)C (Ac-EEDDSDVWWGGADTDYADGG-NH2)	
351 ± 26 nM	CC(=O)N[C@@H](CCC(=O)O)C(=O)N[C@@H](CCC(=O)O)C(=O)N[C@@H](CC(=O)O)C(=O)N[C@@H](CC(=O)O)C(=O)N[C@@H](CO)C(=O)N[C@@H](CC(=O)O)C(=O)N[C@H](C(=O)N[C@@H](Cc1c[nH]c2ccccc12)C(=O)N[C@@H](Cc1c[nH]c2ccccc12)C(=O)NCC(=O)NCC(=O)N[C@@H](C)C(=O)N[C@@H](CC(=O)O)C(=O)N[C@H](C(=O)N[C@@H](CC(=O)O)C(=O)N[C@@H](Cc1ccc(O)cc1)C(=O)N[C@@H](C)C(=O)N[C@@H](CC(=O)O)C(=O)NCC(=O)NCC(=O)N[C@@H](CCC(=O)O)C(N)=O)[C@@H](C)O)C(C)C (Ac-EEDDSDVWWGGADTDYADGGE-NH2)	
356 ± 11 nM	CC(=O)N[C@@H](CCC(=O)O)C(=O)N[C@@H](CCC(=O)O)C(=O)N[C@@H](CC(=O)O)C(=O)N[C@@H](CC(=O)O)C(=O)N[C@@H](CO)C(=O)N[C@@H](CC(=O)O)C(=O)N[C@H](C(=O)N[C@@H](Cc1c[nH]c2ccccc12)C(=O)N[C@@H](Cc1c[nH]c2ccccc12)C(=O)NCC(=O)NCC(=O)N[C@@H](C)C(=O)N[C@@H](CC(=O)O)C(=O)N[C@H](C(=O)N[C@@H](CC(=O)O)C(=O)N[C@@H](Cc1ccc(O)cc1)C(=O)N[C@@H](C)C(=O)N[C@@H](CC(=O)O)C(=O)NCC(=O)NCC(=O)N[C@@H](CCC(=O)O)C(=O)N[C@@H](CC(=O)O)C(N)=O)[C@@H](C)O)C(C)C (Ac-EEDDSDVWWGGADTDYADGGED-NH2)	
392 ± 14 nM	CC(=O)N[C@@H](CCC(=O)O)C(=O)N[C@@H](CCC(=O)O)C(=O)N[C@@H](CC(=O)O)C(=O)N[C@@H](CC(=O)O)C(=O)N[C@@H](CO)C(=O)N[C@@H](CC(=O)O)C(=O)N[C@H](C(=O)N[C@@H](Cc1c[nH]c2ccccc12)C(=O)N[C@@H](Cc1c[nH]c2ccccc12)C(=O)NCC(=O)NCC(=O)N[C@@H](C)C(=O)N[C@@H](CC(=O)O)C(=O)N[C@H](C(=O)N[C@@H](CC(=O)O)C(=O)N[C@@H](Cc1ccc(O)cc1)C(=O)N[C@@H](C)C(=O)N[C@@H](CC(=O)O)C(=O)NCC(=O)NCC(=O)N[C@@H](CCC(=O)O)C(=O)N[C@@H](CC(=O)O)C(=O)N[C@@H](CCCCN)C(N)=O)[C@@H](C)O)C(C)C (Ac-EEDDSDVWWGGADTDYADGGEDK-NH2)	
